{"source": "ChEMBL document CHEMBL1201862", "about": "“PubChem BioAssay data set” (2004)", "key": {"[1]": {"target": "Eukaryotic translation initiation factor 4E (Mus musculus, UniProt P63073)", "sequence (P63073 whole entry)": "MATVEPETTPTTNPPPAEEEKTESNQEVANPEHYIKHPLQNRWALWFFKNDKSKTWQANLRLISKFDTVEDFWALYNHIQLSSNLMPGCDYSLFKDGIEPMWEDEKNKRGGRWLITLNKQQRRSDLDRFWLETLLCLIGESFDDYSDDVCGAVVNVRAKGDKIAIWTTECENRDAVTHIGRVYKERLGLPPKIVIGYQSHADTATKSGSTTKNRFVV", "assay": "eIF4E–eIF4G protein interaction inhibitors, dose response, biochemical, TR-FRET (AID 855);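 further: potency for disrupting eIF4E binding to eIF4GI seen as loss of FRET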", "format": "functional"}, "[2]": {"assay": "Luminescence-based counterscreen assay for KLF5 inhibitors: dose response cell-based high throughput screening assay to identify cytotoxic compounds using the IEC-6 intestinal epithelial cell line. [Related pubchem assays: 1700 (Primary screen.), 1834 (Confirmation screen.), 1858 (Summary AID.), 1905 (Counterscreen.)]", "format": "functional"}, "[3]": {"target": "Peroxisome proliferator-activated receptor gamma/Nuclear receptor coactivator 3 (Homo sapiens, UniProt P37231)", "format": "functional"}, "[4]": {"tested_on": "Streptococcus sp. 'group A'", "assay": "growth inhibition of control SK(-) GAS strain, dose response, counter-screen for streptokinase expression inhibitor project, luminescence, kanamycin, BacTiterGlo, confirmation (AID 1900)", "format": "functional, organism-based"}, "[5]": {"assay": "inhibitors of intracellular T. cruzi replication, confirmation, NIH3T3 host cells, beta-gal luminescence (AID 2044);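 further: luminescent beta-galactosidase reporter signal from transgenic T. cruzi replicating inside host cells; inhibitors lower the luminescence signal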", "format": "functional, cell-based"}, "[6]": {"target": "Voltage-dependent T-type calcium channel subunit alpha-1H (Homo sapiens, UniProt O95180)", "format": "functional"}, "[7]": {"target": "Peroxisome proliferator-activated receptor gamma/Nuclear receptor coactivator 1 (Homo sapiens, UniProt P37231)", "sequence (P37231 whole entry)": "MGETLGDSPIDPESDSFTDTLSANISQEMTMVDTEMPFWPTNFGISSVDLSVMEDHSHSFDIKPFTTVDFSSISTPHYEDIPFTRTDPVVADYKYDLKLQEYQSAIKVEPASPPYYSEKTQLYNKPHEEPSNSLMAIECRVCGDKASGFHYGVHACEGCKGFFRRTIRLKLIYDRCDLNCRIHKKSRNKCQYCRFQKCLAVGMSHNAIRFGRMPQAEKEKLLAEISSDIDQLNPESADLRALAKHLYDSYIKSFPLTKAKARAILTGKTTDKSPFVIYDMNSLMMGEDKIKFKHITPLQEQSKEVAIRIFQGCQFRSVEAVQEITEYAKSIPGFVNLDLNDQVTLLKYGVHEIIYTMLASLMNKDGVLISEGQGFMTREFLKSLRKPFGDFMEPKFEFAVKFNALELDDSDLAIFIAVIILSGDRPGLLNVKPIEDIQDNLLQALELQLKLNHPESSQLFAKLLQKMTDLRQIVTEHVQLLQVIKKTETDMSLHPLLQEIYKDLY", "sequence (Q15788 whole entry, further chain)": "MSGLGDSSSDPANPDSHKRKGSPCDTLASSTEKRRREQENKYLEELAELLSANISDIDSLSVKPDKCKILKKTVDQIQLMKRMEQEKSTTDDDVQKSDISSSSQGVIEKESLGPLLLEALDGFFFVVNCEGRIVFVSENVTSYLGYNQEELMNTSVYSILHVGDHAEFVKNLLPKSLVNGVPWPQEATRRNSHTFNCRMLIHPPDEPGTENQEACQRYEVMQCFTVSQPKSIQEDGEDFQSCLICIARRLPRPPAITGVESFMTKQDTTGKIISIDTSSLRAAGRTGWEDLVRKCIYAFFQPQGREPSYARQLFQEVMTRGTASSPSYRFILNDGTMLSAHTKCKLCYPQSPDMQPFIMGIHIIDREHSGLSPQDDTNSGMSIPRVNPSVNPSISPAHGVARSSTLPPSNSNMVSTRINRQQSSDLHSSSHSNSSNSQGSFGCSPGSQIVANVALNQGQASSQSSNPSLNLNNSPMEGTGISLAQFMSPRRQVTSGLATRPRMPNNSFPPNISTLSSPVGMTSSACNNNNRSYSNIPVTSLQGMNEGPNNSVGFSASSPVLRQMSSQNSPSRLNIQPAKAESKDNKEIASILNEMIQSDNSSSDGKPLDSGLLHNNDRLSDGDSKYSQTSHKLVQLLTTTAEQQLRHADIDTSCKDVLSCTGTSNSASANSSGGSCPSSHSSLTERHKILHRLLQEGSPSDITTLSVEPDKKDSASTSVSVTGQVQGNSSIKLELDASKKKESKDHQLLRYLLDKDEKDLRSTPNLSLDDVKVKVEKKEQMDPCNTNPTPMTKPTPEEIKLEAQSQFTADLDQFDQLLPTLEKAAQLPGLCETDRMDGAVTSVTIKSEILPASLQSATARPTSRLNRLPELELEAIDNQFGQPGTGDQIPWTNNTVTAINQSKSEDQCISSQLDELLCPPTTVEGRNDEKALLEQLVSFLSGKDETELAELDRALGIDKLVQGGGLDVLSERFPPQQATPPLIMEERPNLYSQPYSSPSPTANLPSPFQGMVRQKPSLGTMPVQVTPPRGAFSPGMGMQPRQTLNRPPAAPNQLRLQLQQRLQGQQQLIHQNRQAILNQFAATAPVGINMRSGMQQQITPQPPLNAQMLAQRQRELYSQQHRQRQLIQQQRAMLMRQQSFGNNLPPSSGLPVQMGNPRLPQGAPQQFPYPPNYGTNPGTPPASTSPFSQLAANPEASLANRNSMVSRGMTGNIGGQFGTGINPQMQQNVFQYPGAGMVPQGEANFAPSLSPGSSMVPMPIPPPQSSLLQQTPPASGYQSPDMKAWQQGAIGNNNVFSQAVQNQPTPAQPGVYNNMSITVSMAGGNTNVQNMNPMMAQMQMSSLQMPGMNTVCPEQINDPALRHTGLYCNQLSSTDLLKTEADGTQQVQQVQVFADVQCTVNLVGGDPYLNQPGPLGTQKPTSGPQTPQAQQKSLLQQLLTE", "format": "functional"}, "[8]": {"target": "Peroxisome proliferator-activated receptor gamma/Nuclear receptor coactivator 2 (Homo sapiens, UniProt P37231)", "sequence (P37231 whole entry)": "as the sequence (P37231 whole entry) above", "sequence (Q15596 whole entry, further chain)": "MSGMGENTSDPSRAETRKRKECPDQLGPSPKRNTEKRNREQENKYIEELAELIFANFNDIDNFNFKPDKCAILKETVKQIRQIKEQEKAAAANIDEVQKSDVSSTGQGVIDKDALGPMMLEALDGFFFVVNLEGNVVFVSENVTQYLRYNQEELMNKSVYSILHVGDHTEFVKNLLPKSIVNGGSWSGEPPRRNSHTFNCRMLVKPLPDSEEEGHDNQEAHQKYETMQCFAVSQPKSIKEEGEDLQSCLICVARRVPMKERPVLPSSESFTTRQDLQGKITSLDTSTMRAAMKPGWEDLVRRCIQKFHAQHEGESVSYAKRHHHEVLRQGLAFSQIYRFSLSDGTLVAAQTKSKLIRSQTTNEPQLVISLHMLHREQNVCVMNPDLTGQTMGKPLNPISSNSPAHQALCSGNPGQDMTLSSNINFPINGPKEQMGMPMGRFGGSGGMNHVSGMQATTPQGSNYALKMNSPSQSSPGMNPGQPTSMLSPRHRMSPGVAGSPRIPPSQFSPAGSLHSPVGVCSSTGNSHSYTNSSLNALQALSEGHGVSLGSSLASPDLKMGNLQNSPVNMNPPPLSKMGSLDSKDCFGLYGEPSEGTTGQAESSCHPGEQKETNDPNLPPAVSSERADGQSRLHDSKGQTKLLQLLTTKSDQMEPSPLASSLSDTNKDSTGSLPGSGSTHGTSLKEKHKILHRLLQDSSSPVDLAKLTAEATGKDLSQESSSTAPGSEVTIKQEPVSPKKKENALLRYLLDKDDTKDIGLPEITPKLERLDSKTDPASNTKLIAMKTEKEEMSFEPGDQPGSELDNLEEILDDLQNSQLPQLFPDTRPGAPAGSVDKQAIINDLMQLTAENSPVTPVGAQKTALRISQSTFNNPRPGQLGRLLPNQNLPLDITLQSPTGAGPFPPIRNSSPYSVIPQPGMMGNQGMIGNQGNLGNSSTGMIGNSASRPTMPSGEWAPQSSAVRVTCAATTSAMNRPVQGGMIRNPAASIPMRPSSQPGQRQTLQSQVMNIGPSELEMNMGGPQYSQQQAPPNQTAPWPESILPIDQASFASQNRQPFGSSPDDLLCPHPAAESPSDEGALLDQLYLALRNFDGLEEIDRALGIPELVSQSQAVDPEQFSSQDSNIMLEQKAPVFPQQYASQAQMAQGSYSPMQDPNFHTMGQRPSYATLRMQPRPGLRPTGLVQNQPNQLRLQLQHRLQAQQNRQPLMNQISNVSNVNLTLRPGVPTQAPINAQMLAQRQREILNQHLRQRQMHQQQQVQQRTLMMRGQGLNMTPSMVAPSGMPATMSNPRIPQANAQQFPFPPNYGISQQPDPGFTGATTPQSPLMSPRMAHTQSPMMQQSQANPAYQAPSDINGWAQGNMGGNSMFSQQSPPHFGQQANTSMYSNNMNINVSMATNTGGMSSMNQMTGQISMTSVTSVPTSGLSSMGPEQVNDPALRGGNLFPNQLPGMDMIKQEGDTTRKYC", "format": "functional"}, "Streptokinase A": {"target": "T1, Streptokinase A (Streptococcus pyogenes serotype M1, UniProt P10520)", "T1 sequence (P10520 whole entry)": "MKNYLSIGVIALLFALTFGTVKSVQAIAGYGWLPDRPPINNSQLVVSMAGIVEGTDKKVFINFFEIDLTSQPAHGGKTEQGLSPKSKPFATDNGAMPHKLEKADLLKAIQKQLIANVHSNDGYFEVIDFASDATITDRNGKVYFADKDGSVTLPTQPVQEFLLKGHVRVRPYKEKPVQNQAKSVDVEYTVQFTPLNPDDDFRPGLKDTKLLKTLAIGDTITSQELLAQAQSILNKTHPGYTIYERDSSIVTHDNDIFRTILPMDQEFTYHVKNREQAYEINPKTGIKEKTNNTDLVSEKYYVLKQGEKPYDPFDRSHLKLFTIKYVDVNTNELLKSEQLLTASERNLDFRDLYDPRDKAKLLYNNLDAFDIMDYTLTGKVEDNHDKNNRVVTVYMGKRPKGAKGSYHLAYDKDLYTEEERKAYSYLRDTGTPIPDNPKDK", "assay": "S. pyogenes streptokinase expression inhibitors, potency, dose response, plasminogen activation absorbance, OD405 (AID 1914);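 further: secreted streptokinase activity via plasminogen activation per viability signal from cell pellet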", "format": "functional, Streptococcus pyogenes M1 GAS"}, "[9]": {"target": "G-protein coupled receptor 35 (Homo sapiens, UniProt Q9HC97)", "sequence (Q9HC97 whole entry)": "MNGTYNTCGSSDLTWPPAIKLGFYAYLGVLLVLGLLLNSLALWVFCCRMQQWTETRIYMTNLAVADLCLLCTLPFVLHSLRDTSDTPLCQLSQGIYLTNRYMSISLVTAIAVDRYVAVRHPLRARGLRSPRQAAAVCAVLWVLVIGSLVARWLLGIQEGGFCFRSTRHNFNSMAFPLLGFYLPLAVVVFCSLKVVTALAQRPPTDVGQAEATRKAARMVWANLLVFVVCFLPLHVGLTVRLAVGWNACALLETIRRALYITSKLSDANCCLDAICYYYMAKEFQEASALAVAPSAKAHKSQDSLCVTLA", "assay": "GPR35 antagonists blocking zaprinast-driven arrestin recruitment, primary screen, imaging, U2OS, beta-arrestin-GFP, zaprinast agonist (AID 2058);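 further: antagonist potency meaning inhibition of agonist-induced arrestin redistribution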", "format": "functional"}, "Streptococcus": {"tested_on": "Streptococcus", "assay": "Group A Streptococcus viability loss, dose response, counter-screen for streptokinase expression inhibitor project, luminescence, BacTiterGlo (AID 1915);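 further: potency for reduction of bacterial viability or growth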", "format": "functional, organism-based"}, "[10]": {"assay": "cytotoxicity toward NIH3T3 fibroblasts, dose response, counter-screen, cell-based, ATP luminescence, mouse fibroblasts (AID 2010);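 further: cells exposed to compound for about 90 hours before reading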", "format": "functional"}, "[11]": {"assay": "Counterscreen for IDE inhibitors: Luminescence-based cell-based high throughput dose response assay to identify compounds that are cytotoxic to HEK cells. [Related pubchem assays: 434962 (Primary screen (IDE inhibitors in singlicate)), 449730 (Counterscreen (Cytotoxicity in triplicate)), 435028 (Confirmation (IDE inhibitors in triplicate)) …", "format": "functional", "settings": "HEK293"}, "Insulin-degrading enzyme": {"target": "T2, Insulin-degrading enzyme (Homo sapiens, UniProt P14735)", "T2 sequence (P14735 whole entry)": "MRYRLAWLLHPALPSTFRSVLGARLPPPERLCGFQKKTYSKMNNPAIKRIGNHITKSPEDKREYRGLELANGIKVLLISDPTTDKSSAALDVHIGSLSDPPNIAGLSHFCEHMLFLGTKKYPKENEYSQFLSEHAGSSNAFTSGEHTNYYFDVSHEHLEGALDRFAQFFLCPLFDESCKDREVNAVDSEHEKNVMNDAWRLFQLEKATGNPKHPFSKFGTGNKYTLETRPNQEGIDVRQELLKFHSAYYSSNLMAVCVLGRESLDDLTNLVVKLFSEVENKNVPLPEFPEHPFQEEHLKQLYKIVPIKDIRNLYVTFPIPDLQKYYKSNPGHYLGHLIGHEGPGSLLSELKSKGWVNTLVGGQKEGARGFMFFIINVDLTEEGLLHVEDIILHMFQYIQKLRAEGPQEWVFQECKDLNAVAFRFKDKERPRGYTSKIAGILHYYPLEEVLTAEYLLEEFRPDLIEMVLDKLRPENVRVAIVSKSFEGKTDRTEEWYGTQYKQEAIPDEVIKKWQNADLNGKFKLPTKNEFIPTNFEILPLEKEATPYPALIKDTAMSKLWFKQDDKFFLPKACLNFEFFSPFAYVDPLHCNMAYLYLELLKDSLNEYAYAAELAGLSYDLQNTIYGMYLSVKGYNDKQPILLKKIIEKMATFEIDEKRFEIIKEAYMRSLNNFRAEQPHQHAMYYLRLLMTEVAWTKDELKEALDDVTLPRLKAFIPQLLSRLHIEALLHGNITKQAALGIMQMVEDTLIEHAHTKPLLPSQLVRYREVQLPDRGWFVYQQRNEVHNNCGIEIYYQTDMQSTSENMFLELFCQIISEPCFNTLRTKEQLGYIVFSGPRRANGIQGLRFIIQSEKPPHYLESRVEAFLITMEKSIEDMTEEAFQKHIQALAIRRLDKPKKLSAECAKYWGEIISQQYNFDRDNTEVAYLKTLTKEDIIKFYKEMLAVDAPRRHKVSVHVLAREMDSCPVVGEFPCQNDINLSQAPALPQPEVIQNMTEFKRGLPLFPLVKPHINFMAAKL", "assay": "Dose Response: Fluorescence polarization-based cell-based high throughput dose response assay for inhibitors of insulin-degrading enzyme (IDE). [Related pubchem assays: 434962 (Primary screen (IDE inhibitors in singlicate)), 449730 (Counterscreen (Cytotoxicity in triplicate)), 435028 (Confirmation (IDE inhibitors in triplicate)), 434984 (Summary …", "format": "functional"}, "[12]": {"target": "Luciferin 4-monooxygenase (Photinus pyralis, UniProt P08659)", "sequence (P08659 whole entry)": "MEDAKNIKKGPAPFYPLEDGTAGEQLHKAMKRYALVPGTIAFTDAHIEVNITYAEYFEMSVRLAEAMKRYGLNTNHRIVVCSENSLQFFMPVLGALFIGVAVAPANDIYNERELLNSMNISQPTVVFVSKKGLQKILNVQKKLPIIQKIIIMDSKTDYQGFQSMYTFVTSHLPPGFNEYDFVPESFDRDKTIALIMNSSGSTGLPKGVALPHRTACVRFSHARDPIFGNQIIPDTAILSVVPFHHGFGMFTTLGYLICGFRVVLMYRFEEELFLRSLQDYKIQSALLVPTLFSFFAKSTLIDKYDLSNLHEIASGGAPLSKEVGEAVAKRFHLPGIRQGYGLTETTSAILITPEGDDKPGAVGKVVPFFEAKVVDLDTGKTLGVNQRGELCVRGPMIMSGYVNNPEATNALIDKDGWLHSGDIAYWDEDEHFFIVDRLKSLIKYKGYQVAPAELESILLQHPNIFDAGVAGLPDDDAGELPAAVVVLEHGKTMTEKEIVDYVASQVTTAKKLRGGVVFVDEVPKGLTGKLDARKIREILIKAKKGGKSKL", "assay": "Counter Screen for Luciferase-based Assay Positives. [Related pubchem assays: 620, 618, 411 ]"}, "[13]": {"assay": "Luminescence Cell-Based Dose Response to Identify Activators of 5'UTR Stem-Loop Driven Prion Protein mRNA Translation in H4-C Neuroglioblastoma Cells. [Related pubchem assays: 1829 (Project Summary), 1814 (Primary HTS)]", "format": "functional"}, "[14]": {"assay": "Luminescence Cell-Based Dose Response to Identify Activators of Luciferase Translation or Activity in H4-C Neuroglioblastoma Cells. [Related pubchem assays: 1829 (Project Summary), 1814 (Primary HTS)]", "format": "functional"}, "[15]": {"target": "T3, Calpain-2 catalytic subunit (Sus scrofa, UniProt P43367)", "T3 sequence (P43367 whole entry)": "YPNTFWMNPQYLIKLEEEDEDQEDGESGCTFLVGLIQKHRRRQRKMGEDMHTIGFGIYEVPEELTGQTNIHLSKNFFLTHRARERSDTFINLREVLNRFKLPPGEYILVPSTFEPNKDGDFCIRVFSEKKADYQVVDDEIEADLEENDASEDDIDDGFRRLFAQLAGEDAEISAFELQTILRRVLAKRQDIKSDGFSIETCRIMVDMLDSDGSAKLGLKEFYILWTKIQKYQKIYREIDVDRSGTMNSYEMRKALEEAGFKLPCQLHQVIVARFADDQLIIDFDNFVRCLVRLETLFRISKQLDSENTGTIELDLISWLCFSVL", "assay": "pig calpain II inhibitor potency, dose response, biochemical, fluorogenic peptide substrate (AID 1420)", "format": "functional"}, "[16]": {"assay": "Luminescence Cell-Based Dose Confirmation to Identify Activators of 5'UTR Stem-Loop Driven Alpha-Synuclein mRNA Translation in H4 Neuroglioblastoma Cells. [Related pubchem assays: 1829 (Project Summary), 1814 (Primary HTS)]", "format": "functional"}, "HT-1080": {"tested_on": "HT-1080", "assay": "cytotoxicity in HT1080 fibrosarcoma cells, cell-based, fluorescence readout (AID 620)", "format": "functional", "settings": "Homo sapiens"}, "[17]": {"assay": "Luminescence Cell-Based Dose Response HTS to Identify Activators of Luciferase Translation or Activity in H4 […] Cells. [Related pubchem assays: 1829 (Project Summary), 1814 (Primary HTS)]", "format": "functional"}}, "note": "The source made the active and inactive calls. For most assays here, no stated cut-off is given here; in the data, actives have a measured EC50 and inactives only a lower limit."}
{"molecule": "COc1ccc(OC)c(Nc2nc(=O)c3cccnc3s2)c1", "values": [{"measurement": "IC50", "setting": "[1]", "value": "50 µM (inactive)"}, {"measurement": "IC50", "setting": "[2]", "value": "> 39.8 µM (not active)"}]}
{"molecule": "CCCOc1cc(N(CC)CC)ccc1/C=C(/C#N)c1nc2cc(C)ccc2[nH]1", "values": [{"measurement": "EC50", "setting": "[3]", "value": "> 79.4 µM (not active)"}, {"measurement": "EC50", "setting": "[4]", "value": "41.5 µM (active)"}, {"measurement": "EC50", "setting": "[5]", "value": "0.937 µM (active)"}, {"measurement": "EC50", "setting": "[6]", "value": "1.19 µM (active)"}, {"measurement": "EC50", "setting": "[7]", "value": "> 79.4 µM (not active)"}, {"measurement": "EC50", "setting": "[8]", "value": "> 79.4 µM (not active)"}, {"measurement": "EC50", "setting": "Streptokinase A", "value": "31.9 µM (active)"}, {"measurement": "IC50", "setting": "[9]", "value": "0.573 µM (active)"}, {"measurement": "EC50", "setting": "Streptococcus", "value": "> 150 µM (not active)"}, {"measurement": "EC50", "setting": "[10]", "value": "> 60 µM (not active)"}]}
{"molecule": "O=C(NCCC1=CCCCC1)Nc1ccc2nsnc2c1", "values": [{"measurement": "IC50", "setting": "[11]", "value": "23.8 µM (not active)"}, {"measurement": "IC50", "setting": "Insulin-degrading enzyme", "value": "> 56 µM (not active)"}]}
{"molecule": "O=C(c1cccc(COc2ccc(Cl)cc2Cl)c1)N1CCN(c2ccccn2)CC1", "values": [{"measurement": "EC50", "setting": "[12]", "value": "46.5 µM (active)"}, {"measurement": "EC50", "setting": "[13]", "value": "0.275 µM (active)"}, {"measurement": "EC50", "setting": "[14]", "value": "0.242 µM (active)"}, {"measurement": "IC50", "setting": "[15]", "value": "> 50 µM (not active)"}, {"measurement": "EC50", "setting": "[16]", "value": "0.251 µM (active)"}, {"measurement": "EC50", "setting": "HT-1080", "value": "> 50 µM (not active)"}, {"measurement": "EC50", "setting": "[17]", "value": "< 0.1 µM (inconclusive)"}]}
